Laboratory results as given in patent US9539342B2, “Auristatin tyramine phosphate salts and auristatin aminoquinoline derivatives and prodrugs thereof” (ARIZONA BOARD OF REGENTS, A BODY CORPORATE OF THE STATE OF …, priority 2011, dated 2017).
≈ marks a conversion by molar mass, not a printed value. Read-outs that look alike come from different tables or passages of the source.

How the values were obtained:
[1] = Solubility in distilled water
Description: The remaining salts (3e-h) were prepared directly from the free acid 10b by treatment with the appropriate base or amino acid. The solubilities of each salt and of precursor 9 were measured in distilled water at room temperature.

[2] = system: murine P388 lymphocytic leukemia cell line; test: Murine P388 lymphocytic leukemia cell line growth inhibition; format: cell-based; settings: for Activity against P388 (in words): murine P388 lymphocytic leukemia cell line
[3] = system: lung (NCI-H460); test: Human cancer cell line minipanel: NCI-H460; format: cell-based; settings: for GI50: read-out: GI50 NCI-H460 (nanomolar value in parentheses)
[4] = system: colon (KM20L2); test: Human cancer cell line minipanel: KM20L2; format: cell-based; settings: for GI50: read-out: GI50 KM20L2 (nanomolar value in parentheses)
[5] = system: prostate (DU-145); test: Human cancer cell line minipanel: DU-145; format: cell-based; settings: for GI50: read-out: GI50 DU-145 (nanomolar value in parentheses)
[6] = system: pancreas (BXPC-3); test: Human cancer cell line minipanel: BXPC-3; format: cell-based; settings: for GI50: read-out: GI50 BXPC-3 (nanomolar value in parentheses)
[7] = system: breast (MCF-7); test: Human cancer cell line minipanel: MCF-7; format: cell-based; settings: for GI50: read-out: GI50 MCF-7 (nanomolar value in parentheses)
[8] = system: CNS (SF-268); test: Human cancer cell line minipanel: SF-268; format: cell-based; settings: for GI50: read-out: GI50 SF-268 (nanomolar value in parentheses)
[9] = system: minipanel of human cancer cell lines; test: Minipanel of human cancer cell lines (summary); format: cell-based; settings: for GI50 (order of magnitude over the cell lines): summary of cancer cell growth inhibition
[10] = Storage stability of the free phosphoric acid; format: physicochemical; settings: storable for short periods as methanolic solution (<0.01 M at 4° C.)
Source text: The most soluble were the sodium (3b) and potassium (3c) salts (Table 2).

[11] = murine lymphocytic leukemia (P388)
[12] = murine lymphocytic leukemia (P388), read-out: ED50 P388 (nanomolar value in parentheses)

Compound	Solubility ([1]; in distilled water at 23° C.)	Activity against P388 (in words) [2]	ED50 P388 [2, 11]	EC50 [2, 12]	GI50 NCI-H460 [3]	GI50 [3]	GI50 KM20L2 [4]	GI50 [4]	GI50 DU-145 [5]	GI50 [5]	GI50 BXPC-3 [6]	GI50 [6]	GI50 MCF-7 [7]	GI50 [7]	GI50 SF-268 [8]	GI50 [8]	Activity against minipanel of human cancer cell lines (in words) [9]	GI50 (order of magnitude over the cell lines) [9]	further results
CC[C@H](C)[C@@H]([C@@H](CC(=O)N1CCC[C@H]1[C@H](OC)[C@@H](C)C(=O)NCCc1ccc(OP(=O)([O-])[O-])cc1)OC)N(C)C(=O)[C@@H](NC(=O)[C@H](C(C)C)N(C)C)C(C)C.[Li+].[Li+] [Compound 3a, Lithium Auristatin TP]	>65 mg/mL	–	–	–	–	–	–	–	–	–	–	–	–	–	–	–	–	–	–
CC[C@H](C)[C@@H]([C@@H](CC(=O)N1CCC[C@H]1[C@H](OC)[C@@H](C)C(=O)NCCc1ccc(OP(=O)([O-])[O-])cc1)OC)N(C)C(=O)[C@@H](NC(=O)[C@H](C(C)C)N(C)C)C(C)C.[K+].[K+] [Compound 3c, Potassium Auristatin TP]	>120 mg/mL	exceptional activity	7.6 ng/mL	8.7 nM	–	–	–	–	–	–	–	–	–	–	–	–	–	–	–
C1COCCN1.CC[C@H](C)[C@@H]([C@@H](CC(=O)N1CCC[C@H]1[C@H](OC)[C@@H](C)C(=O)NCCc1ccc(OP(=O)(O)O)cc1)OC)N(C)C(=O)[C@@H](NC(=O)[C@H](C(C)C)N(C)C)C(C)C [Compound 3d, Morpholine Auristatin TP]	>72 mg/mL	–	–	–	–	–	–	–	–	–	–	–	–	–	–	–	–	–	–
CC[C@H](C)[C@@H]([C@@H](CC(=O)N1CCC[C@H]1[C@H](OC)[C@@H](C)C(=O)NCCc1ccc(OP(=O)(O)O)cc1)OC)N(C)C(=O)[C@@H](NC(=O)[C@H](C(C)C)N(C)C)C(C)C.NC(CO)(CO)CO [Compound 3f, TRIS Auristatin TP]	>51 mg/mL	–	–	–	–	–	–	–	–	–	–	–	–	–	–	–	–	–	–
CC[C@H](C)[C@@H]([C@@H](CC(=O)N1CCC[C@H]1[C@H](OC)[C@@H](C)C(=O)Nc1ccc2ncccc2c1)OC)N(C)C(=O)[C@@H](NC(=O)[C@H](C(C)C)N(C)C)C(C)C [Compound 5, Dov-Val-Dil-Dap-6-aminoquinoline]	–	exceptional activity	2.6 ng/mL (≈ 0.00359 µM)	3.59 nM	0.36 ng/mL (≈ 0.000497 µM)	0.5 nM	0.25 ng/mL (≈ 0.000345 µM)	0.35 nM	0.3 ng/mL (≈ 0.000414 µM)	0.41 nM	0.00031 µg/mL (≈ 0.000428 µM)	0.43 nM	0.14 ng/mL (≈ 0.000193 µM)	0.19 nM	0.16 ng/mL (≈ 0.000221 µM)	0.22 nM	similarly strong activity	10^−4 μg/mL	–
CC[C@H](C)[C@@H]([C@@H](CC(=O)N1CCC[C@H]1[C@H](OC)[C@@H](C)C(=O)NCCc1ccc(O)cc1)OC)N(C)C(=O)[C@@H](NC(=O)[C@H](C(C)C)N(C)C)C(C)C [Compound 9, Dov-Val-Dil-Dap-4-hydroxyphenethylamide]	–	exceptional activity	3.6 ng/mL (≈ 0.00501 µM)	–	–	–	–	–	–	–	–	–	–	–	–	–	–	–	Solubility [1]: <1 mg/mL; EC50 ([2]; Mus musculus, P388, read-out: ED50 P388 (nanomolar value in parentheses)): 5 nM
CCC(C)C(C(CC(=O)N1CCCC1C(OC)C(C)C(=O)NCCc1ccc(OP(=O)(O)O)cc1)OC)N(C)C(=O)C(NC(=O)C(C(C)C)N(C)C)C(C)C (stereo not drawn) [Compound 10b, Dov-Val-Dil-Dap-4-(dihydrophosphoryloxy)phenethylamide]	–	–	–	–	–	–	–	–	–	–	–	–	–	–	–	–	–	–	Stability of the pure substance (in words) [10]: quite unstable
Dov-Val-Dil-Dap-2-aminoquinoline [Compound 4]	–	exceptional activity	31 ng/mL	42.8 nM	16 ng/mL	22.1 nM	7.7 ng/mL	10.6 nM	23 ng/mL	31.8 nM	0.029 µg/mL	40.1 nM	4.6 ng/mL	6.35 nM	29 ng/mL	40.1 nM	similarly strong activity	10^−2-10^−3 μg/mL	–
Sodium Auristatin TP [Compound 3b]	>236 mg/mL	exceptional activity	<1 ng/mL	< 1.2 nM	0.88 ng/mL	1.05 nM	0.61 ng/mL	0.72 nM	0.54 ng/mL	0.64 nM	0.046 µg/mL	54.6 nM	0.68 ng/mL	0.81 nM	1.25 ng/mL	1.48 nM	similarly strong activity	10^−2-10^−4 μg/mL	–
